In patent US9346809B2 (LEO PHARMA A/S, priority 2009, dated 2016) one finds EC50 data, which are given here for 19 molecules.

SMILES strings stand for the structures. Like-named read-outs stand apart in the source and are kept apart here.

Holding throughout (type): biochemical
Test [1] addresses T1, JAK2 (catalytic domain, His-tag) (Homo sapiens, UniProt O60674).
T1 construct: All four purified enzymes contain only the catalytic domain; His (N); purchased Carna Biosciences, Inc; host or cells: baculovirus expression system
Put plainly: JAK kinase assay (HTRF, phosphorylation of TK substrate-biotin), JAK2. The note with it: ATP at Km (4 μM). The procedure, abridged: (§1)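 HTRF KinEASE TK format; 1 μM biotinylated peptide, Km ATP: 7 μM (JAK1, 10 mM MgCl2, 50 nM SEB), 4 μM (JAK2), 2 μM (JAK3), 13 μM (TYK2, 50 nM SEB); 5 mM MgCl2 for the latter three. RT 20-30 min, 0.75% DMSO final. Overnight detection, EC50.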
On the technique in general: TR-FRET usually uses a lanthanide donor and a delayed reading to cut background.

Test [2] addresses T2, JAK1 (aa 850-1154, catalytic domain, GST-tag) (Homo sapiens, UniProt P23458).
T2 construct: JAK1 (aa 850-1154) and TYK2 (aa 871-1187) are expressed with an N-terminally fused GST-tag; GST (N); purchased Carna Biosciences, Inc; host or cells: baculovirus expression system
Put plainly: JAK kinase assay (HTRF, phosphorylation of TK substrate-biotin), JAK1. To be noted: ATP at Km (7 μM). In a few lines: as §1

Test [3] has as its target T3, JAK3 (catalytic domain, His-tag) (Homo sapiens, UniProt P52333).
T3 construct: All four purified enzymes contain only the catalytic domain; His (N); purchased Carna Biosciences, Inc; host or cells: baculovirus expression system
Nature of the test: JAK kinase assay (HTRF, phosphorylation of TK substrate-biotin), JAK3. To be noted: ATP at Km (2 μM). The procedure, abridged:
as §1

Test [4] addresses T4, TYK2 (aa 871-1187, catalytic domain, GST-tag) (Homo sapiens, UniProt P29597).
T4 construct: JAK1 (aa 850-1154) and TYK2 (aa 871-1187) are expressed with an N-terminally fused GST-tag; GST (N); purchased Carna Biosciences, Inc; host or cells: baculovirus expression system
T4 sequence (P29597 871-1187): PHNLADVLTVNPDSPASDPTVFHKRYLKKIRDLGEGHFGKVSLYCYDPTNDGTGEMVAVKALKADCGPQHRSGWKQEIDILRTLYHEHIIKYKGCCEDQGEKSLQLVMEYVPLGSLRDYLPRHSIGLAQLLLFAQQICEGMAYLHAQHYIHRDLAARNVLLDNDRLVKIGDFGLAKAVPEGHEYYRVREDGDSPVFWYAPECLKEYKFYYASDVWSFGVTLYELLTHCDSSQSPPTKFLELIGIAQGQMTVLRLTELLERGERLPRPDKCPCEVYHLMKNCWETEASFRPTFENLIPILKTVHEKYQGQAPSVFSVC
Nature of the test: JAK kinase assay (HTRF, phosphorylation of TK substrate-biotin), TYK2. The note with it: ATP at Km (13 μM). In a few lines:
as §1

The mark [5] stands for this setting: HTRF assay, read-out: JAK2 kinase inhibitory activity (EC50).
[6] abbreviates: HTRF assay, read-out: JAK1 kinase inhibitory activity (EC50).
Setting [7] is: HTRF assay, read-out: JAK3 kinase inhibitory activity (EC50).
[8] abbreviates: HTRF assay, read-out: TYK2 kinase inhibitory activity (EC50).
The mark [9] stands for this setting: read-out: JAK2 kinase inhibitory activity (EC50 indicator).
The mark [10] stands for this setting: read-out: JAK1 kinase inhibitory activity (EC50 indicator).
[11] abbreviates: read-out: JAK3 kinase inhibitory activity (EC50 indicator).
[12] abbreviates: read-out: TYK2 kinase inhibitory activity (EC50 indicator).
[13] abbreviates: HTRF assay, read-out: JAK2 kinase inhibitory activity (EC50 indicator).
Setting [14] is: HTRF assay, read-out: JAK1 kinase inhibitory activity (EC50 indicator).
The mark [15] stands for this setting: HTRF assay, read-out: JAK3 kinase inhibitory activity (EC50 indicator).
[16] abbreviates: HTRF assay, read-out: TYK2 kinase inhibitory activity (EC50 indicator).

T2 sequence (P23458 850-1154): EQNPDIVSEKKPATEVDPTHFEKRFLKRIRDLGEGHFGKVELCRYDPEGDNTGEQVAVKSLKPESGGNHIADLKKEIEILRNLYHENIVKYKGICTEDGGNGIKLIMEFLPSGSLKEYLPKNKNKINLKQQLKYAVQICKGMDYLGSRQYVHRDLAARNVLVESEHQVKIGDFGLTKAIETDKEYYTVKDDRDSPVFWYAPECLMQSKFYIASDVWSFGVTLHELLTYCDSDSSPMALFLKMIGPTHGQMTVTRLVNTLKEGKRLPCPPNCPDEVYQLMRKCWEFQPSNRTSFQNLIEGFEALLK
T3 sequence (P52333 822-1111 limits assumed): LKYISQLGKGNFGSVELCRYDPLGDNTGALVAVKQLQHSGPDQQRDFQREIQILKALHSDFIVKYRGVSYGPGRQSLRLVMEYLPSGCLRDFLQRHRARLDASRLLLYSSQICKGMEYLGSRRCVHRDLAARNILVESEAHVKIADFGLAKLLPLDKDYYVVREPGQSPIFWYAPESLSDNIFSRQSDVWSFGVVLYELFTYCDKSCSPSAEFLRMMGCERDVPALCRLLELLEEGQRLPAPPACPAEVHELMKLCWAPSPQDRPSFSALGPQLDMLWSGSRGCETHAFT
T1 sequence (O60674 849-1124 limits assumed): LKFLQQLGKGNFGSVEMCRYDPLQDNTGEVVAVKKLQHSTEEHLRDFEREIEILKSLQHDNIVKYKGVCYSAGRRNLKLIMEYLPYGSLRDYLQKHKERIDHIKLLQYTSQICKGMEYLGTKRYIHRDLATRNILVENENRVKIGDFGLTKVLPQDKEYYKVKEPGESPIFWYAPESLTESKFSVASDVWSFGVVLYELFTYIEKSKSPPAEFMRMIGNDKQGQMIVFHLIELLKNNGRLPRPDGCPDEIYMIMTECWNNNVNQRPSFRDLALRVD

Consider `CCN(CC)S(=O)(=O)N1CCN(c2ncnc3[nH]ccc23)CC12CC2` [Example 459, 7-(7H-Pyrrolo[2,3-d]pyrimidin-4-yl)-4,7-diaza-spiro[2.5]octane-4-sulfonic acid diethylamide], for which the EC50 (as a rule, the midpoint of the concentration-response curve) in test [1] (setting [5]) was < 100 nM; in test [2] (setting [6]) it was < 100 nM; in test [3] (setting [7]), 100 to 500 nM; in test [4] (setting [8]), 100 to 500 nM.
For the molecule `O=C(Cc1c[nH]c2ccccc12)N1[C@@H]2CC[C@@H]1CN(c1ncnc3[nH]ccc13)C2` [Example 170, 2-(1H-Indol-3-yl)-1-[3-(7H-pyrrolo[2,3-d]pyrimidin-4-yl)-3,8-diaza-bicyclo[3.2.1]oct-8-yl]-ethanone], the EC50 in test [1] (setting [9]) was 100 to 500 nM; in test [2] (setting [10]), 100 to 500 nM; in test [3] (setting [11]) it was 100 to 500 nM; in test [4] (setting [12]), > 500 nM.
With `Cc1ccc(CNS(=O)(=O)c2ccc(C(=O)N3CCN(c4ncnc5[nH]ccc45)CC34CC4)cc2)o1` [Example 427, N-(5-Methyl-furan-2-ylmethyl)-4-[7-(7H-pyrrolo[2,3-d]pyrimidin-4-yl)-4,7-diaza-spiro[2.5]octane-4-carbonyl]-benzenesulfonamide], the EC50 in test [1] (setting [13]), in test [2] (setting [14]), in test [3] (setting [15]) and in test [4] (setting [16]) was < 100 nM throughout.
With `CS(=O)(=O)c1cccc(CC(=O)N2CCN(c3ncnc4[nH]ccc34)CC23CC3)c1` [Example 101, 2-(3-Methanesulfonyl-phenyl)-1-[7-(7H-pyrrolo[2,3-d]pyrimidin-4-yl)-4,7-diaza-spiro[2.5]oct-4-yl]-ethanone], the EC50 in test [1] (setting [9]) is 100 to 500 nM; in test [2] (setting [10]), 100 to 500 nM; in test [3] (setting [11]) it was 100 to 500 nM; in test [4] (setting [12]), > 500 nM.
`CNS(=O)(=O)c1csc(C(=O)N2CCN(c3ncnc4[nH]ccc34)CC23CC3)c1` [Example 373, 5-[7-(7H-Pyrrolo[2,3-d]pyrimidin-4-yl)-4,7-diaza-spiro[2.5]octane-4-carbonyl]-thiophene-3-sulfonic acid methylamide]: the EC50 in test [1] (setting [13]), in test [2] (setting [14]), in test [3] (setting [15]) and in test [4] (setting [16]) was < 100 nM each time.
Take `CS(=O)(=O)CCC(=O)N1CCN(c2ncnc3[nH]ccc23)CC12CC2` [Example 37, 3-Methanesulfonyl-1-[7-(7H-pyrrolo[2,3-d]pyrimidin-4-yl)-4,7-diazaspiro[2.5]oct-4-yl]propan-1-one]: the EC50 in test [1] (setting [9]) was < 100 nM; in test [2] (setting [10]), < 100 nM; in test [3] (setting [11]) it was 100 to 500 nM; in test [4] (setting [12]) it was > 500 nM.
As to `CC#CCOC(=O)N1CCN(c2ncnc3[nH]ccc23)CC12CC2` [Example 89, 7-(7H-Pyrrolo[2,3-d]pyrimidin-4-yl)-4,7-diaza-spiro[2.5]octane-4-carboxylic acid but-2-ynyl ester], the EC50 in test [1] (setting [9]) was < 100 nM; in test [2] (setting [10]), < 100 nM; in test [3] (setting [11]), 100 to 500 nM; in test [4] (setting [12]), > 500 nM.
For `CS(=O)(=O)c1ccc(C(=O)N2[C@@H]3CC[C@@H]2CN(c2ncnc4[nH]ccc24)C3)cc1` [Example 356, (4-Methanesulfonyl-phenyl)-[3-(7H-pyrrolo[2,3-d]pyrimidin-4-yl)-3,8-diaza-bicyclo[3.2.1]oct-8-yl]-methanone], the EC50 is < 100 nM in test [1] (setting [13]), < 100 nM in test [2] (setting [14]), 100 to 500 nM in test [3] (setting [15]) and > 500 nM in test [4] (setting [16]).
`CS(=O)(=O)c1ccc(C(=O)N2CCN(c3ncnc4[nH]ccc34)CC23CC3)c(Cl)c1` [Example 382, (2-Chloro-4-methanesulfonyl-phenyl)-[7-(7H-pyrrolo[2,3-d]pyrimidin-4-yl)-4,7-diaza-spiro[2.5]oct-4-yl]-methanone]: the EC50 in test [1] (setting [13]) was < 100 nM; in test [2] (setting [14]) it was < 100 nM; in test [3] (setting [15]), > 500 nM; in test [4] (setting [16]), 100 to 500 nM.
Turning to `N#Cc1ccc(C(=O)N2[C@@H]3CC[C@H]2CN(c2ncnc4[nH]ccc24)C3)s1` [Example 71, 5-[3-(7H-Pyrrolo[2,3-d]pyrimidin-4-yl)-3,8-diaza-bicyclo[3.2.1]octane-8-carbonyl]-thiophene-2-carbonitrile], the EC50 in test [1] (setting [9]) is < 100 nM; in test [2] (setting [10]), < 100 nM; in test [3] (setting [11]) it was < 100 nM; in test [4] (setting [12]), 100 to 500 nM.
`O=C(c1cnc2ccccc2n1)N1CCN(c2ncnc3[nH]ccc23)CC12CC2` [Example 161, [7-(7H-Pyrrolo[2,3-d]pyrimidin-4-yl)-4,7-diaza-spiro[2.5]oct-4-yl]-quinoxalin-2-yl-methanone]: the EC50 in test [1] (setting [9]), in test [2] (setting [10]), in test [3] (setting [11]) and in test [4] (setting [12]) was < 100 nM each time.
Consider `N#CCCCC(=O)N1CCN(c2ncnc3[nH]cc(Cl)c23)CC12CC2` [Example 322, 5-[7-(5-Chloro-7H-pyrrolo[2,3-d]pyrimidin-4-yl)-4,7-diaza-spiro[2.5]oct-4-yl]-5-oxo-pentanenitrile], for which the EC50 in test [1] (setting [13]) was > 500 nM; in test [2] (setting [14]) it was > 500 nM; in test [3] (setting [15]), 100 to 500 nM; in test [4] (setting [16]), > 500 nM.
As to `COCCOCC(=O)Nc1nc(N2CCN(C(=O)Cc3ccc(C#N)cc3)C3(CC3)C2)c2cc[nH]c2n1` [Example 96, N-(4-{4-[2-(4-Cyano-phenyl)-acetyl]-4,7-diaza-spiro[2.5]oct-7-yl}-7H-pyrrolo[2,3-d]pyrimidin-2-yl)-2-(2-methoxy-ethoxy)-acetamide], the EC50 in test [1] (setting [9]) is < 100 nM; in test [2] (setting [10]), < 100 nM; in test [3] (setting [11]), 100 to 500 nM; in test [4] (setting [12]), > 500 nM.
Take `NS(=O)(=O)c1ccc(C(=O)N2CCN(c3ncnc4[nH]ccc34)CC23CC3)s1` [Example 405, 5-[7-(7H-Pyrrolo[2,3-d]pyrimidin-4-yl)-4,7-diaza-spiro[2.5]octane-4-carbonyl]-thiophene-2-sulfonic acid amide]: the EC50 in test [1] (setting [13]), in test [2] (setting [14]), in test [3] (setting [15]) and in test [4] (setting [16]) was < 100 nM in each case.
`COCCCNC(=S)N1[C@@H]2CC[C@H]1CN(c1ncnc3[nH]ccc13)C2` [Example 39, 3-(7H-Pyrrolo[2,3-d]pyrimidin-4-yl)-3,8-diazabicyclo[3.2.1]octane-8-carbothioic acid (3-methoxy-propyl)amide]: the EC50 in test [1] (setting [9]) is 100 to 500 nM; in test [2] (setting [10]), > 500 nM; in test [3] (setting [11]) it was > 500 nM; in test [4] (setting [12]), > 500 nM.
`O=C(c1cnc2ccccc2n1)N1CCN(c2ncnc3[nH]cc(Cl)c23)CC12CC2` [Example 317, [7-(5-Chloro-7H-pyrrolo[2,3-d]pyrimidin-4-yl)-4,7-diaza-spiro[2.5]oct-4-yl]-quinoxalin-2-yl-methanone]: the EC50 in test [1] (setting [13]) was 100 to 500 nM; in test [2] (setting [14]), > 500 nM; in test [3] (setting [15]), > 500 nM; in test [4] (setting [16]) it was > 500 nM.
As to `Cc1cc2[nH]c(C(=O)N3[C@@H]4CC[C@H]3CN(c3ncnc5[nH]ccc35)C4)cc2cc1F` [Example 110, (5-Fluoro-6-methyl-1H-indol-2-yl)-[3-(7H-pyrrolo[2,3-d]pyrimidin-4-yl)-3,8-diaza-bicyclo[3.2.1]oct-8-yl]-methanone], the EC50 is 100 to 500 nM in test [1] (setting [9]), < 100 nM in test [2] (setting [10]), 100 to 500 nM in test [3] (setting [11]) and > 500 nM in test [4] (setting [12]).
`N#CCCCS(=O)(=O)c1ccc(C(=O)N2CCN(c3ncnc4[nH]ccc34)CC23CC3)cc1` [Example 408, 4-{4-[7-(7H-Pyrrolo[2,3-d]pyrimidin-4-yl)-4,7-diaza-spiro[2.5]octane-4-carbonyl]-benzenesulfonyl}-butyronitrile]: the EC50 is < 100 nM in test [1] (setting [13]), < 100 nM in test [2] (setting [14]), > 500 nM in test [3] (setting [15]) and > 500 nM in test [4] (setting [16]).
As to `Cc1ccc(S(=O)(=O)N2CCN(c3ncnc4[nH]ccc34)CC23CC3)cc1` [Example 439, 4-[4-(Toluene-4-sulfonyl)-4,7-diazaspiro[2.5]oct-7-yl]-7H-pyrrolo[2,3-d]pyrimidine], the EC50 is < 100 nM in test [1] (setting [5]), < 100 nM in test [2] (setting [6]), < 100 nM in test [3] (setting [7]) and 100 to 500 nM in test [4] (setting [8]).
